Experiment [1] addresses Protein disulfide-isomerase (Homo sapiens, UniProt P07237). Nature of the experiment: PDI inhibitors, insulin aggregation turbidity, dose response, biochemical, absorbance, cherry-picked samples (AID 602350). In kind it is functional.
A short description of experiment [2]: NIH-3T3 fibroblast cytotoxicity, dose response, cytotoxicity control, cell-based, fluorescence, Alamar Blue, secondary assay (AID 2327).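 Further: NIH-3T3 mouse fibroblasts cultured with fluconazole at 8 µg/mL.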 In kind it is functional. (Alamar Blue is a resazurin reagent that responds to reducing activity.)
Experiment [3] can be described thus: C. albicans growth with fluconazole, confirmation, fluorescence, retest (AID 2467). It counts as functional, cell-based.
The nature of experiment [4]: inhibitors of intracellular T. cruzi replication, confirmation, NIH3T3 host cells, beta-gal luminescence (AID 2044).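 Further: intracellular parasites grown in NIH/3T3 mouse fibroblasts as host cells; luminescent beta-galactosidase reporter signal from transgenic T. cruzi replicating inside host cells; inhibitors lower the luminescence signal.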 In kind it is functional, cell-based.
Experiment [5] can be described thus: cytotoxicity toward NIH3T3 fibroblasts, dose response, counter-screen, cell-based, ATP luminescence, mouse fibroblasts (AID 2010).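 Further: cells exposed to compound for about 90 hours before reading.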 It counts as functional.
The subject of a further experiment is INS1. The experiment in a line: beta cell apoptosis inhibitors, cytokine rescue, dose response, luminescence, retest (AID 449756).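 Further: cell death triggered by IL-1 beta plus TNF-alpha plus IFN-gamma mixture; protective hits raise ATP signal compared with cytokine alone wells.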 It counts as functional, cell-based. To be noted: Rattus norvegicus.
Experiment [6] deals with T1, High affinity choline transporter 1 (Homo sapiens, UniProt Q9GZV3).
T1 sequence (Q9GZV3 whole entry): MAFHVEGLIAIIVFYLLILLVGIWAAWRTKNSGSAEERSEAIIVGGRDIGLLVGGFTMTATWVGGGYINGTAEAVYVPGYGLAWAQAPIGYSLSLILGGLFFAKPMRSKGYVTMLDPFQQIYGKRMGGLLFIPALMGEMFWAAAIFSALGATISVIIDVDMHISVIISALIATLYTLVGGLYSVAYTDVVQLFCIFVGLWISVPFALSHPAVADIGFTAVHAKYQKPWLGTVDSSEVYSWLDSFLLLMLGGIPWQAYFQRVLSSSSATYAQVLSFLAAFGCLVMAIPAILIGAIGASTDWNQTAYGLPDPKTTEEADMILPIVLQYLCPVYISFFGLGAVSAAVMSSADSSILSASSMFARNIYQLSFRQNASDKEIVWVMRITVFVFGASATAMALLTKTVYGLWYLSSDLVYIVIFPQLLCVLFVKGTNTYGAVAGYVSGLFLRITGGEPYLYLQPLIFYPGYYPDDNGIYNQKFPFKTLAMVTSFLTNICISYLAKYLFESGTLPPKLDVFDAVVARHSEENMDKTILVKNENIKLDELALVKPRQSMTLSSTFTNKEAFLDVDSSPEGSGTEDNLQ
Nature of the experiment: CHT activators, dose response, cell-based, 10-point CRC, membrane potential dye (AID 602376). It counts as functional.

A further experiment has as its system CHO-K1. Nature of the experiment: Counterscreen for antagonists of the orexin 1 receptor (OX1R; HCRTR1): Homogeneous time resolved fluorescence (HTRF)-based cell-based dose response assay to identify antagonists of the parental CHO-K1 cell line. [Related pubchem assays (depositor defined):AID434989, AID435008, AID463079, AID485270, AID492963, AID492964, AID492965, AID493232, AID504699, AID504701]. It counts as functional. The conditions noted are these: Cricetulus griseus. Background: The purpose of a counterscreen is to sort out artefacts and off-target activity.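 Further: potency for inhibition of ATP-stimulated IP1 production as antagonists.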

Experiment [7] is described as follows: Counterscreen for antagonists of the orexin 1 receptor (OX1R; HCRTR1): Fluorescence-based cell-based high throughput dose response assay to identify antagonists of the parental CHO cell line. [Related pubchem assays (depositor defined):AID434989, AID435008, AID463079, AID485270, AID492963, AID492964, AID492965, AID493232, AID504699, AID504701]. It counts as functional.

For experiment [8], the target named is T2, Orexin/Hypocretin receptor type 1 (Homo sapiens, UniProt O43613). The experiment in a line: Homogeneous Time Resolved Fluorescence (HTRF)-based cell-based high throughput dose response assay for antagonists of the orexin 1 receptor (OX1R; HCRTR1). [Related pubchem assays (depositor defined):AID434989, AID435008, AID463079, AID485270, AID492963, AID492964, AID492965, AID493232, AID504717, AID504718]. In kind it is functional.
T2 sequence (O43613 whole entry): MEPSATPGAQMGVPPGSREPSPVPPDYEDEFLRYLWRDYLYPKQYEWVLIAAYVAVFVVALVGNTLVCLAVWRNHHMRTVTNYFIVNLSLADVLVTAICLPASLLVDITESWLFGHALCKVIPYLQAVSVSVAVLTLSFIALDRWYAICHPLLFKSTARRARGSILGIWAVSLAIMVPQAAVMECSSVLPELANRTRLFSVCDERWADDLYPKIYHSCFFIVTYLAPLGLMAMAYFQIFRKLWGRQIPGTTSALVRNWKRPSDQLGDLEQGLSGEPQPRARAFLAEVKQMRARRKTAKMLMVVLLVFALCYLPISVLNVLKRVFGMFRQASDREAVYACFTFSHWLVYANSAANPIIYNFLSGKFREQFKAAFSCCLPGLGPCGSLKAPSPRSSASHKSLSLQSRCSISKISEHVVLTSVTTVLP

Experiment [9] has as its target T2, Orexin/Hypocretin receptor type 1. Nature of the experiment: Fluorescence-based cell-based high throughput dose response assay for antagonists of the orexin 1 receptor (OX1R; HCRTR1). [Related pubchem assays (depositor defined):AID434989, AID435008, AID463079, AID485270, AID492963, AID492964, AID492965, AID493232, AID504717, AID504718]. It counts as functional.

For experiment [10], the target named is T3, Orexin receptor type 2 (Homo sapiens, UniProt O43614). The experiment in a line: Counterscreen assay for antagonists of the orexin 1 receptor (OX1R; HCRTR1): Fluorescence-based cell-based dose response assay for antagonists of the orexin 2 receptor (OX2R; HCRTR2), run by assay provider. It counts as functional.
T3 sequence (O43614 whole entry): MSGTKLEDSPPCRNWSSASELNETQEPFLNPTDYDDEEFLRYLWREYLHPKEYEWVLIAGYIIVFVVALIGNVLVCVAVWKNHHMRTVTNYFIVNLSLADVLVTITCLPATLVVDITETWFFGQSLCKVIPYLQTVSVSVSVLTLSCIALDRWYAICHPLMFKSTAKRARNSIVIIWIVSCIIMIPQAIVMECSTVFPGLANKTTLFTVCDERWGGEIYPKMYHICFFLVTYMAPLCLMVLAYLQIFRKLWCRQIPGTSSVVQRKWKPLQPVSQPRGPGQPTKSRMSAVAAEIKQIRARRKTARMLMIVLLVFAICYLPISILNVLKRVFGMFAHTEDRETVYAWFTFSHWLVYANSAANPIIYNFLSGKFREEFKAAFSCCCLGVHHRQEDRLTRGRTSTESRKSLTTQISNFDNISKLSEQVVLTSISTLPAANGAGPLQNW
Experiment [11] deals with T4, Corticotropin-releasing factor receptor 2/Corticotropin-releasing factor-binding protein (Homo sapiens, UniProt P24387+Q13324).
T4 sequence (Q13324 whole entry): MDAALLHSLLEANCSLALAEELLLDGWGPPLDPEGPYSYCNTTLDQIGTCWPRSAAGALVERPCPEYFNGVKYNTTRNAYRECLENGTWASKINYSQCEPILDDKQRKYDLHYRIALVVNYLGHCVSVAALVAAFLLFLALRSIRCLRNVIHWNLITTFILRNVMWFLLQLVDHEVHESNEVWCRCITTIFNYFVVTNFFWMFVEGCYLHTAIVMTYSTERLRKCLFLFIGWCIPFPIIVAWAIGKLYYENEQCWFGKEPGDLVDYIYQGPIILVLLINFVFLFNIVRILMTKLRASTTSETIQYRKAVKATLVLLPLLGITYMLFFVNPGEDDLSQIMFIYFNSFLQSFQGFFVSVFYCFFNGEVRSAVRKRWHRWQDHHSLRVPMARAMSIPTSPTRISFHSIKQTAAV
T4 sequence (P24387 whole entry): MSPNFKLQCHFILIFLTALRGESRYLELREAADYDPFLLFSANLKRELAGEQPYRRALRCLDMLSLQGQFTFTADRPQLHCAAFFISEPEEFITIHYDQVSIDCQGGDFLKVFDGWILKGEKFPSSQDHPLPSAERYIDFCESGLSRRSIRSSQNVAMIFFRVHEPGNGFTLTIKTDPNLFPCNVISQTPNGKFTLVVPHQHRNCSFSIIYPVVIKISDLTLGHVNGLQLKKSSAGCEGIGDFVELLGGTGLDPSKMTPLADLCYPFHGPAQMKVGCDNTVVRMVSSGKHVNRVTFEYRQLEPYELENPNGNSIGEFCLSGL
Nature of the experiment: activators of CRF receptor 2 with binding protein – uHTS hits, confirmation (AID 602473). It counts as functional. To be noted: read-out: EC50_Mean.

For experiment [12], the target named is T3, Orexin receptor type 2. Nature of the experiment: Counterscreen assay for antagonists of the orexin 1 receptor (OX1R; HCRTR1): Homogeneous Time Resolved Fluorescence (HTRF)-based cell-based dose response assay for antagonists of the orexin 2 receptor (OX2R; HCRTR2), run by assay provider. It counts as functional.
Experiment [13] in a line: Vero cell cytotoxicity, cytotoxicity control for M. tuberculosis inhibitor project, purified and synthesized samples, set 8 (AID 602431). In kind it is functional. The conditions noted are these: Mycobacterium tuberculosis.
The nature of experiment [14]: HepG2 cell cytotoxicity, cytotoxicity control, set 6 (AID 602432). In kind it is functional. To be noted: Mycobacterium tuberculosis.
Experiment [15] in a line: THP-1 cell cytotoxicity, cytotoxicity control, set 6 (AID 602433). It counts as functional. The conditions noted are these: Mycobacterium tuberculosis.
Experiment [16] in a line: HEp-2 cell cytotoxicity, dose response, cytotoxicity control for RSV inhibitor project, HTS (AID 2410). In kind it is functional. The conditions noted are these: human respiratory syncytial virus.
The target in experiment [17] is T5, V-type proton ATPase subunit c' (Saccharomyces cerevisiae S288c, UniProt P32842). Nature of the experiment: Dose Response with BCECF Assay for V-ATPase inhibitors that increase vacuolar pH, Powder Set 1. In kind it is functional. To be noted: read-out: EC50_MICROM.
T5 sequence (P32842 whole entry): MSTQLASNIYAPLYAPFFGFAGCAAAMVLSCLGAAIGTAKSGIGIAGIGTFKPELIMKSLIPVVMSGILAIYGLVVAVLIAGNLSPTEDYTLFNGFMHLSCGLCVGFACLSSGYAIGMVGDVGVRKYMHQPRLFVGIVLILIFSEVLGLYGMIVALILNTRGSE
In experiment [18] the target is T5, V-type proton ATPase subunit c'. Nature of the experiment: Dose Response of Small Molecules that Regulate V-ATPase Proton Transport in Yeast using pHLuorin, Powder Set1. The conditions noted are these: read-out: EC50_MICROM. It counts as functional.

The source made the active and inactive calls. Bounds are passed on as bounds.

Chain of Protein disulfide-isomerase (P07237 whole entry): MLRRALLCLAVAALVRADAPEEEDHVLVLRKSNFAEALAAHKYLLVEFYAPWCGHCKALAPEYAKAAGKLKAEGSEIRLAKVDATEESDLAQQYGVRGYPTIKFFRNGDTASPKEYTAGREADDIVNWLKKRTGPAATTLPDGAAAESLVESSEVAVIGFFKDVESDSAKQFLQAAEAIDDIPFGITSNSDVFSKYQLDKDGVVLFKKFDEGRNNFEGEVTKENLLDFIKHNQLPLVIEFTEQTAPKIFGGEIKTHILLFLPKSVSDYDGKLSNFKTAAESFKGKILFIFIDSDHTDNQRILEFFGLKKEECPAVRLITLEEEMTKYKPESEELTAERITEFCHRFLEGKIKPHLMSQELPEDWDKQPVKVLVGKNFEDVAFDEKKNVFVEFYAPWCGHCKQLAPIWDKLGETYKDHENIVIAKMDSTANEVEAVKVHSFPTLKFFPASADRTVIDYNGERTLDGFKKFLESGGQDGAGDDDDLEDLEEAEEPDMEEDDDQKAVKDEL

In general, AC50 refers to the concentration at which the activity in the assay is half-maximal. Regarding `Cc1c(O)ccc2c(CN3CCN(CCO)CC3)cc(=O)oc12`, the AC50 in experiment [1] is 8.66 µM (active).
With `COc1ccc(C)cc1Nc1n[n+](-c2ccccc2)c(-c2ccc(OC)c(OC)c2OC)s1`, the EC50 is > 160 µM (inactive) in [2]; 2.71 µM (active) in experiment [3]; 0.215 µM (active) in experiment [4]; > 30 µM (not active) in [5]; 12.1 µM (active) in [6]. In addition, the AC50 with INS1 is 11.2 µM (active).
As a reminder, the IC50 is the point on the concentration scale where inhibition reaches its midpoint. Turning to `Cc1cc(-c2ccc(N3CCOCC3)cc2)nc2ccccc12`, the IC50 with CHO-K1 was > 66.2 µM (inactive); in [7], > 49.8 µM (inactive); in [8], 2.37 µM (active); in [9], 5.3 µM (active); at Orexin receptor type 2 [10], > 88.8 µM (inactive); at Orexin receptor type 2 [12], 19.3 µM (inactive). Besides, the EC50 in [11] was > 53 µM (inactive).
The CC50 is the concentration giving 50% cytotoxicity. On to `O=C(NCc1ccc(C(=O)N2CCC(c3ccccc3)CC2)cc1)Nc1ccc(Cl)cc1`, for which the CC50 in experiment [13] is 40.1 µM (active); in [14], 35 µM (active); in [15], 24.7 µM (active).
With `O=C(c1ccc([N+](=O)[O-])o1)N1CCN(c2nc3c(Cl)cccc3s2)CC1`, the CC50 in experiment [16] was > 50 µM (active). Besides, the EC50 was 0.254 µM (active) in [4], 20.6 µM (active) in [5], 0.86 µM (active) in experiment [17] and 3.53 µM (active) in experiment [18].

The record behind these values is ChEMBL document CHEMBL1201862, “PubChem BioAssay data set” (2004).
